# According to US8344140B2, “18F-labelled folates” (Merck Eprova AG, priority 2007, dated 2013):
# Experiments:
# [1] = in vitro plasma stability study, murine plasma; assay type: in vitro ADME; details: 37° C.
# Method: (§1) The ^18F-click folate was employed in in vitro plasma stability studies and in metabolite studies using liver microsomes.
# (§2) ^18F-click folate was incubated with both human and murine plasma at 37° C. in a shaking water bath. Aliquots were taken at different time points and analysed by HPLC.
# [2] = metabolite study using murine liver microsomes; assay type: in vitro ADME; details: 37° C., aliquots at 0, 5, 15 and 30 min
# Method: as §1
# (§3) Metabolites studies using human and murine liver microsomes were carried out at 37° C. over a time span of 0-30 min. Aliquots were taken at 0, 5, 15 and 30 min.
# [3] = in vitro plasma stability study, human plasma; assay type: in vitro ADME; details: 37° C.
# Method: as §1, §2
# [4] = tested on: folate receptor-positive KB tumors; test: in vivo PET imaging in nude mice bearing KB xenografts tumors; details: ~11 MBq injected; PET scans 15 min to 45 min post injection
# Method: In vivo PET imaging using the ^18F-click folate was performed in nude mice bearing KB xenografts tumors. ˜11 MBq of the radiotracer were injected into each animal. In the blockade group 200 μg natural folic acid was injected 10 min prior to the radiotracer. The PET scans were acquired from 15 min to 45 min post injection.
# The KB tumors could be imaged by PET using ^18F-click folate.
# PET imaging using [^18F]FDG was performed with the same animals four days after the ^18F-click folate studies. ˜9 MBq of [^18F]FDG were injected into each animal. The PET scans were acquired from 30 min to 60 min post injection. […] Although [^18F]FDG is the most commonly used radiotracer in PET tumor imaging, it is known that [^18F]FDG is not suitable for the imaging of KB xenografts tumors (Bettio et al, J. Nucl. Med. […]; 47: 1153-60).
# FIG. 4 show the PET images using ^18F-click folate (left hand side) in comparison to PET images using [^18F]FDG (right hand side), the arrows indicate the position of the KB xenografts tumors.
# [5] = metabolite study using human liver microsomes; assay type: in vitro ADME; details: 37° C., aliquots at 0, 5, 15 and 30 min
# Method: as §1, §3
# [6] = tested on: folate receptor-positive KB tumors; test: ex vivo biodistribution in nude mice bearing KB xenografts tumors; details: ~2 MBq injected, 45 min post injection
# Method: ^18F-click folate was applied in ex vivo biodistribution studies using eight nude mice bearing KB xenografts tumors. ˜2 MBq of the radiotracer were injected into each animal. In a blockade group (4 animals) […] natural folic acid was injected 10 min prior to the radiotracer. The animals were scarified 45 min post injection. […] Furthermore a specific uptake with 78% specific blockade was also found in the kidneys, which are known to express the folate receptor.
compound,measurement,setting,value
"Nc1nc2ncc(CNc3ccc(C(=O)NC(CCC(=O)NCCCCn4cc(CCCC[18F])nn4)C(=O)O)cc3)nc2c(=O)[nH]1 (centres unmarked) [^18F-click folate, γ-(4-(4-(4-[^18F]fluorobutyl)-1,2,3-triazol-1-yl)butyl) folic acid amide]",stability in plasma,"[1]; HPLC analysis, 0-120 min",high stability
same,defluorination or other radioactive degradation products in plasma,[1]; over a period of 0-120 min,No defluorination or other radioactive degradation products were detected
same,radioactive metabolites or degradation in liver microsomes,[2],no radioactive metabolites or degradation
same,stability in plasma,"[3]; HPLC analysis, 0-120 min",high stability
same,defluorination or other radioactive degradation products in plasma,[3]; over a period of 0-120 min,No defluorination or other radioactive degradation products were detected
same,"accumulation of radioactivity in the abdominal region (gallbladder, intestines)",[4],high accumulation
same,tumor-to-background ratio,[4],low
same,radioactive metabolites or degradation in liver microsomes,[5],no radioactive metabolites or degradation
same,specific blockade of radiotracer uptake in KB tumors,"[6]; KB tumors, natural folic acid 10 min prior in blockade group",94%
same,specific blockade of radiotracer uptake in kidneys,"[6]; kidneys, natural folic acid 10 min prior in blockade group",78%
same,"unspecific uptake in gallbladder, intestine and feces",[6]; points to hepatobiliary elimination,High unspecific uptake
